Laboratory results: publication PMC7038975 (Nucleic Acids Research, 2019)

Biological target: dihydropyrimidinase (DHP) (Homo sapiens, UniProt Q14117)
Assay: HPLC assay of […],6-dihydrouracil
Type: biochemical

Chain of dihydropyrimidinase (DHP) (Q14117 whole entry): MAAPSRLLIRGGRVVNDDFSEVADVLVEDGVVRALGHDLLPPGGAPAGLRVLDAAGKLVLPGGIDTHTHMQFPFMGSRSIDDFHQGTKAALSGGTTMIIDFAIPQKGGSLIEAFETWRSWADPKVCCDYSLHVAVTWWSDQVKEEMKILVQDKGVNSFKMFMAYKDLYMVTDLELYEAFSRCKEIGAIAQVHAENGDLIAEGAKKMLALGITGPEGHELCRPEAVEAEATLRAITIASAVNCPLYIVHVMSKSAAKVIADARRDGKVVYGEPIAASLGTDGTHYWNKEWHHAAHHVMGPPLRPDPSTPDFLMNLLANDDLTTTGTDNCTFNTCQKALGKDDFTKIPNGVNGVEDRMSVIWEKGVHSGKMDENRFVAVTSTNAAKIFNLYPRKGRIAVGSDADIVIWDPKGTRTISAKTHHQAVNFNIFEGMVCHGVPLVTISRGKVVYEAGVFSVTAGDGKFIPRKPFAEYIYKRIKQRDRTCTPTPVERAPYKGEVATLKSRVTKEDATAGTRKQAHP

IC50: ~6 µM
SMILES: O=C1c2c(O)cc(O)cc2O[C@H](c2cc(O)c(O)c(O)c2)[C@H]1O [dihydromyricetin]
